Test results as given in patent US12128044B2, “Fused tricyclic compounds and uses thereof in medicine” (SUNSHINE LAKE PHARMA CO., LTD., priority 2018, dated 2024).

Tests used:
HBV DNA replication = assay: Inhibition of HBV virus replication (HBV DNA in supernatant, qPCR) in HepG2.2.15 cells; assay type: cell-based; conditions: Hepatitis B virus, 10 days treatment, supernatant day 11, qPCR
Source text: (§1) The chromosome of HepG2.2.15 cells integrates a complete HBV genome and stably expresses viral RNA and protein. HepG2.2.15 cells can secrete mature hepatitis B virus particles and HBsAg into culture medium. Virus particles DNA and HBsAg secreted by HepG 2.2.15 cells can be quantified by q-PCR and ELISA, and the effects of compounds on viral replication and HBsAg secretion can be detected.
(§2) HepG 2.2.15 cells were inoculated with 8,000 per cell to 96-well cell culture plates in duplicate, and were cultured for 3 days until the cells grew to full-hole. Cells were treated with 4-fold serial dilutions of compounds for 10 days, and were given alternately every other day. The final concentration of DMSO in all pores was 0.5% and DMSO was used as a drug-free control. The supernatant was collected for quantitative detection of HBV DNA on day 11.
Viral genomic DNA was detected by qPCR method, and HBV primers were as follows: • HBV-For-202, […] (SEQ ID NO:1); • HBV-Rev-315, […](SEQ ID NO:2).
The SYBR Premix Ex Taq II-Takara DRR081S kit was used, and 1 μL of cell culture supernatant was used as a template. A standard curve was made using a plasmid containing the HBV genome, and the viral copy number was calculated using the standard curve. Concentration-virus copy number was processed using Graphpad Prism 5 software, and IC50 of Compounds Inhibiting Virus Replication was calculated by Four-parameter Nonlinear Regression Model.

HBsAg secretion = assay: Inhibition of HBsAg secretion (ELISA) in HepG2.2.15 cells; assay type: cell-based; conditions: Hepatitis B virus, HepG2.2.15, read-out: Hbs Ag IC50
Source text: as §1
as §2, with “HBsAg” for “HBV DNA”
The level of HBsAg secreted by the compound after treatment is detected by ELISA method, and the method uses a hepatitis B surface antigen diagnostic kit (Shanghai Kehua Biotech Co., Ltd. S10910113). 25 μL of the supernatant to be assayed (PBS was diluted to 75 μL) was added to per well of the ELISA plate, positive control and negative control kit were set. ELISA plate was blocked with a cover paper, and incubated at 37° C. for 60 minutes. The ELISAplate was taken out, the seal was teared off, and 50 μL of enzyme conjugate was added to each well. The ELISA plate was oscillated on the shaker for 10 seconds, blocked with a cover paper and incubated at 37° C. for 30 minutes. The ELISA plate was taken out, the seal was teared off, and the ELISA plate was washed 5 times: each time the liquid in the hole was discarded, the washing liquid was filled into the holes, left to stand for 60 seconds, dried, and the liquid residue was patted on the absorbent paper. Immediately after the end of washing, a freshly prepared mixture of Developer A and Developer B was added to all wells: 100 μL per well. The ELISA plate was oscillated on the shaker for 10 seconds, blocked with a cover paper and incubated at 37° C. for 30 minutes. 50 μL of stop solution was added to all wells. Absorbance was read on the Envision plate reader at 450 nm. Concentration-HBsAg OD450 was processed using Graphpad Prism 5 software, and IC50 of Compounds Inhibiting Virus Replication was calculated by Four-parameter Nonlinear Regression Model.

[1] = Pharmacokinetic experiments in beagle dogs; assay type: in vivo
Protocol: Pharmacokinetic experiments of the compounds of the invention in beagle dogs (Body weight 10-12 kg, male, age 10-12 months, 3 per oral group, 3 per intravenous injection group) Test method:
Beagle was administered orally with 2.5 mg/kg or 5 mg/kg of the compound tested or intravenously injected with 1 mg/kg or 2 mg/kg of the compound tested.
After administration, venous blood was collected at time points (0.083, 0.25, 0.5, 1, 2, 4, 6, 8 and 24 hours) and collected in an anticoagulation tube with EDTA-K2. After liquid-liquid extraction, plasma samples were quantitatively analyzed by multiple reaction ion monitoring (MRM) on a triple quadrupole tandem mass spectrometer. Pharmacokinetic parameters were calculated using a noncompartmental method by WinNonLin 6.3 software.

| SMILES | IC50 (HBV DNA replication) [nM] | IC50 (HBsAg secretion) [nM] | further results |
| --- | --- | --- | --- |
| COc1cc2c(cc1-c1ccco1)CN(C(C)C)n1cc(C(=O)O)c(=O)cc1-2 [Example 1, 9-(furan-2-yl)-6-isopropyl-10-methoxy-2-oxo-6,7-dihydro-2H-pyrido[2,1-a]phthalazine-3-carb oxylic acid] | 2.68 | 4.27 |  |
| COc1cc2c(cc1-c1cccs1)CN(C(C)C)n1cc(C(=O)O)c(=O)cc1-2 [Example 2, 6-isopropyl-10-methoxy-2-oxo-9-(thiophen-2-yl)-6,7-dihydro-21H-pyrido[2,1-a]phthalazine-3-carboxylic acid] | 2.06 | 1.72 |  |
| COc1cc2c(cc1-c1nccs1)CN(C(C)C)n1cc(C(=O)O)c(=O)cc1-2 [Example 3, 6-isopropyl-10-methoxy-2-oxo-9-(thiazol-2-yl)-6,7-dihydro-2H-pyrido[2,1-a]phthalazine-3-carboxylic acid] | 1.71 | 3.26 |  |
| COc1cc2c(cc1-c1cnn(C(C)C)c1)CN(C(C)C)n1cc(C(=O)O)c(=O)cc1-2 [Example 4, 6-isopropyl-9-(1-isopropyl-1H-pyrazol-4-yl)-10-methoxy-2-oxo-6,7-dihydro-2H-pyrido[2,1-a]phthalazine-3-carboxylic acid] | 3.81 | 9.6 |  |
| COc1cc2c(cc1-c1cnn(C(F)F)c1)CN(C(C)C)n1cc(C(=O)O)c(=O)cc1-2 [Example 5, 9-(1-(difluoromethyl)-1H-pyrazole-4-yl)-6-isopropyl-10-methoxy-2-oxo-6,7-dihydro-2H-pyrido [2,1-a]phthalazine-3-carboxylic acid] | 7.3 | 14.3 | F ([1]; PO 5 mg/kg vs IV 1 mg/kg): 76.7%; AUC(0-inf) ([1]; male, dog, plasma, IV, 1 mg/kg): 17400 ng·h/mL; AUC(0-t) ([1]; male, dog, plasma, IV, 1 mg/kg): 16900 ng·h/mL; Cmax ([1]; male, dog, plasma, IV, 1 mg/kg): 2170 ng/mL; clearance ([1]; male, dog, plasma, IV, 1 mg/kg): 0.955 mL/min/kg; AUC(0-inf) ([1]; male, dog, plasma, PO, 5 mg/kg): 66700 ng·h/mL; AUC(0-t) ([1]; male, dog, plasma, PO, 5 mg/kg): 63300 ng·h/mL; Cmax ([1]; male, dog, plasma, PO, 5 mg/kg): 8710 ng/mL |
| COc1cc2c(cc1-c1cnn(C3CCC(F)(F)CC3)c1)CN(C(C)C)n1cc(C(=O)O)c(=O)cc1-2 [Example 7, 9-(1-(4,4-Difluorocyclohexyl)-1H-pyrazol-4-yl)-6-isopropyl-10-methoxy-2-oxo-6,7-dihydro-2H-pyrido[2,1-a]phthalazine-3-carboxylic acid] | 1.76 | 6.73 |  |
| COc1cc2c(cc1-c1cnn(C3CC(C)(C)OC(C)(C)C3)c1)CN(C(C)C)n1cc(C(=O)O)c(=O)cc1-2 [Example 8, 6-isopropyl-10-methoxy-2-oxo-9-(1-(2,2,6,6-tetramethyltetrahydro-2H-pyran-4-yl)-1H-pyrazole-4-yl)-6,7-dihydro-2H-pyrido[2,1-a]phthalazine-3-carboxylic acid] | 6.26 | 6.03 |  |
| COc1cc2c(cc1-c1cnn(C(C)C)c1)CN(C(C)(C)C)n1cc(C(=O)O)c(=O)cc1-2 [Example 13, 6-(tert-butyl)-9-(1-isopropyl-1H-pyrazol-4-yl)-10-methoxy-2-oxo-6,7-dihydro-2H-pyrido[2,1-a]phthalazine-3-carboxylic acid] | 0.7 | 0.97 |  |
| COc1cc2c(cc1-c1cnn(C(C)C)c1)CN(C1CC1)n1cc(C(=O)O)c(=O)cc1-2 [Example 14, 6-cyclopropyl-9-(1-isopropyl-1H-pyrazol-4-yl)-10-methoxy-2-oxo-6,7-dihydro-2H-pyrido[2,1-a]phthalazine-3-carboxylic acid] | < 0.24 | < 0.24 |  |
| COc1cc2c(cc1-c1cnn(C(C)C)c1)CN(C1CCC1)n1cc(C(=O)O)c(=O)cc1-2 [Example 15, 6-cyclobutyl-9-(1-isopropyl-1H-pyrazol-4-yl)-10-methoxy-2-oxo-6,7-dihydro-2H-pyrido[2,1-a]phthalazine-3-carboxylic acid] | 2.1 | 1.83 |  |
| COc1cc2c(cc1-c1cnn(C3CC3)c1)CN(C(C)C)n1cc(C(=O)O)c(=O)cc1-2 [Example 16, 9-(1-cyclopropyl-1H-pyrazole-4-yl)-6-isopropyl-10-methoxy-2-oxo-6,7-dihydro-2H-pyrido[2,1-a]phthalazine-3-carboxylic acid] | 2.74 | 6.11 |  |
| COc1cc2c(cc1-c1cnn(C3CCC3)c1)CN(C(C)C)n1cc(C(=O)O)c(=O)cc1-2 [Example 17, 9-(1-cyclobutyl-1H-pyrazole-4-yl)-6-isopropyl-10-methoxy-2-oxo-6,7-dihydro-2H-pyrido[2,1-a]phthalazine-3-carboxylic acid] | 2.82 | 4.07 |  |
| COc1cc2c(cc1-c1cnn(C3CCCC3)c1)CN(C(C)C)n1cc(C(=O)O)c(=O)cc1-2 [Example 18, 9-(1-cyclopentyl-1H-pyrazole-4-yl)-6-isopropyl-10-methoxy-2-oxo-6,7-dihydro-2H-pyrido [2,1-a]phthalazine-3-carboxylic acid] | 2.28 | 3.73 |  |
| COc1cc2c(cc1-c1cnn(C3CCOCC3)c1)CN(C(C)C)n1cc(C(=O)O)c(=O)cc1-2 [Example 19, 6-isopropyl-10-methoxy-2-oxo-9-(1-(tetrahydro-2H-pyran-4-yl)-1H-pyrazole-4-yl)-6,7-dihydro-2H-pyrido[2,1-a]phthalazine-3-carboxylic acid] | 3.98 | 7.82 |  |
